ChEMBL document CHEMBL1152531, “Amphotericin B-induced ion flux is markedly attenuated in phosphatidylglycerol membrane as evidenced by a newly devised fluorometric method” (Bioorg Med Chem, 2009)
Active and inactive are the calls of the source. The calls are words filed in the database; no cut-off is given here.

Key:
[1] = Membrane permeabilizing activity across 1-palmitoyl-2-oleoyl-sn-glycero-3-phosphocholine liposome assessed as K+ ion influx at compound to lipid ratio of 0.0001 to 0.001 after 18 hrs by BCECF staining-based fluorometric method; format: physicochemical; conditions: artificial membrane
[2] = Membrane permeabilizing activity across ergosterol-containing 1-palmitoyl-2-oleoyl-sn-glycero-3-phosphocholine liposome assessed as K+ ion influx at compound to lipid ratio of 0.0001 to 0.001 after 18 hrs by BCECF staining-based fluorometric method; format: physicochemical; conditions: artificial membrane
[3] = Membrane permeabilizing activity across cholesterol-containing 1-palmitoyl-2-oleoyl-sn-glycero-3-phosphocholine liposome assessed as K+ ion influx at compound to lipid ratio of 0.0001 to 0.001 after 18 hrs by BCECF staining-based fluorometric method; format: physicochemical; conditions: artificial membrane
[4] = Membrane permeabilizing activity across 1-palmitoyl-2-oleoyl-sn-glycero-3-phosphocholine liposome assessed as K+ ion influx at compound to lipid ratio of 0.001 to 0.01 after 18 hrs by BCECF staining-based fluorometric method; format: physicochemical; conditions: artificial membrane
[5] = (§1) Membrane permeabilizing activity across large unilamellar vesicle containing 1-palmitoyl-2-oleoyl-sn-glycero-3-phosphatidylglycerol and 30% 1-palmitoyl-2-oleoyl-sn-glycero-3-phosphocholine assessed as K+ ion influx at compound to lipid ratio of 0.001 to 0.01 after 18 hrs by BCECF staining-based fluorometric method; format: physicochemical
[6] = as §1, with “10%” for “30%”; format: physicochemical
[7] = Membrane permeabilizing activity across 1-palmitoyl-2-oleoyl-sn-glycero-3-phosphatidylglycerol liposome assessed as K+ ion influx at compound to lipid ratio of 0.001 to 0.01 after 18 hrs by BCECF staining-based fluorometric method; format: physicochemical; conditions: artificial membrane
Lipid bilayer [8] = assay: Binding affinity to 1-palmitoyl-2-oleoyl-sn-glycero-3-phosphocholine bilayer membrane at 6.3 uM after 18 hrs by UV spectroscopy
Lipid bilayer [9] = assay: Binding affinity to 1-palmitoyl-2-oleoyl-sn-glycero-3-phosphatidylglycerol bilayer membrane at 6.3 uM after 18 hrs by UV spectroscopy
[10] = Binding affinity to bilayer membrane of 1-palmitoyl-2-oleoyl-sn-glycero-3-phosphatidylglycerol and 30% 1-palmitoyl-2-oleoyl-sn-glycero-3-phosphocholine at 6.3 uM after 18 hrs by UV spectroscopy

Activity [1]: Not Active | Activity [2]: Active | Activity [3]: Not Active | Activity [4]: Active | Activity [5]: Active | Activity [6]: Active | Activity [7]: Not Active | Activity (Lipid bilayer [8]): Active | Activity (Lipid bilayer [9]): Active | Activity [10]: Active
SMILES: C[C@@H]1[C@H](O)[C@@H](C)/C=C/C=C/C=C/C=C/C=C/C=C/C=C/[C@H](O[C@@H]2O[C@H](C)[C@@H](O)[C@H](N)[C@@H]2O)C[C@@H]2O[C@](O)(C[C@@H](O)C[C@@H](O)[C@H](O)CC[C@@H](O)C[C@@H](O)CC(=O)O[C@H]1C)C[C@H](O)[C@H]2C(=O)O [AMPHOTERICIN B]
